# Structures can show the parent of a compound that is named as a salt.
# Test system: lawns
# Assay: Long-term action on lawns (Example 14)
# Type: in vivo
# Conditions: for First cutting, green weight relative / First cutting, growth height relative / Second cutting, green weight relative / Second cutting, growth height relative / Third cutting, green weight relative: control 100
structure (smiles),measurement,setting,value
Fc1ccc(N2N=NC3C4CC(C5N=NC45)C32)cc1 (centres unmarked),"First cutting, green weight",0.5 kg/ha,23.1 g
same,"First cutting, growth height",0.5 kg/ha,15.0 cm
same,"Second cutting, green weight",0.5 kg/ha,21.8 g
same,"Second cutting, growth height",0.5 kg/ha,10.0 cm
same,"Third cutting, green weight",0.5 kg/ha,14.6 g
same,"First cutting, green weight relative",0.5 kg/ha,65.4
same,"First cutting, growth height relative",0.5 kg/ha,83.3
same,"Second cutting, green weight relative",0.5 kg/ha,81.6
same,"Second cutting, growth height relative",0.5 kg/ha,68.0
same,"Third cutting, green weight relative",0.5 kg/ha,96.1
same,"First cutting, green weight",1.0 kg/ha,20.5 g
same,"First cutting, growth height",1.0 kg/ha,12.5 cm
same,"Second cutting, green weight",1.0 kg/ha,21.4 g
same,"Second cutting, growth height",1.0 kg/ha,9.0 cm
same,"Third cutting, green weight",1.0 kg/ha,13.5 g
same,"First cutting, green weight relative",1.0 kg/ha,58.1
same,"First cutting, growth height relative",1.0 kg/ha,69.5
same,"Second cutting, green weight relative",1.0 kg/ha,80.1
same,"Second cutting, growth height relative",1.0 kg/ha,61.2
same,"Third cutting, green weight relative",1.0 kg/ha,88.8
same,"First cutting, green weight",2.0 kg/ha,9.8 g
same,"First cutting, growth height",2.0 kg/ha,7.5 cm
same,"Second cutting, green weight",2.0 kg/ha,10.1 g
same,"Second cutting, growth height",2.0 kg/ha,5.0 cm
same,"Third cutting, green weight",2.0 kg/ha,9.5 g
same,"First cutting, green weight relative",2.0 kg/ha,27.8
same,"First cutting, growth height relative",2.0 kg/ha,41.7
same,"Second cutting, green weight relative",2.0 kg/ha,37.8
same,"Second cutting, growth height relative",2.0 kg/ha,34.0
same,"Third cutting, green weight relative",2.0 kg/ha,62.5
same,"First cutting, green weight",4.0 kg/ha,7.9 g
same,"First cutting, growth height",4.0 kg/ha,6.5 cm
same,"Second cutting, green weight",4.0 kg/ha,7.1 g
same,"Second cutting, growth height",4.0 kg/ha,2.0 cm
same,"Third cutting, green weight",4.0 kg/ha,7.9 g
same,"First cutting, green weight relative",4.0 kg/ha,22.4
same,"First cutting, growth height relative",4.0 kg/ha,36.1
same,"Second cutting, green weight relative",4.0 kg/ha,26.6
same,"Second cutting, growth height relative",4.0 kg/ha,13.6
same,"Third cutting, green weight relative",4.0 kg/ha,52.0
Cc1ccccc1N1N=NC2C3CC(C4N=NC34)C21 (centres unmarked),"First cutting, green weight",0.5 kg/ha,26.8 g
same,"First cutting, growth height",0.5 kg/ha,14.0 cm
same,"Second cutting, green weight",0.5 kg/ha,23.5 g
same,"Second cutting, growth height",0.5 kg/ha,13.0 cm
same,"Third cutting, green weight",0.5 kg/ha,16.5 g
same,"First cutting, green weight relative",0.5 kg/ha,75.9
same,"First cutting, growth height relative",0.5 kg/ha,77.8
same,"Second cutting, green weight relative",0.5 kg/ha,88.0
same,"Second cutting, growth height relative",0.5 kg/ha,88.4
same,"Third cutting, green weight relative",0.5 kg/ha,108.6
same,"First cutting, green weight",1.0 kg/ha,25.5 g
same,"First cutting, growth height",1.0 kg/ha,14.0 cm
same,"Second cutting, green weight",1.0 kg/ha,22.0 g
same,"Second cutting, growth height",1.0 kg/ha,12.5 cm
same,"Third cutting, green weight",1.0 kg/ha,16.3 g
same,"First cutting, green weight relative",1.0 kg/ha,72.2
same,"First cutting, growth height relative",1.0 kg/ha,77.8
same,"Second cutting, green weight relative",1.0 kg/ha,82.4
same,"Second cutting, growth height relative",1.0 kg/ha,85.0
same,"Third cutting, green weight relative",1.0 kg/ha,107.2
same,"First cutting, green weight",2.0 kg/ha,20.0 g
same,"First cutting, growth height",2.0 kg/ha,12.5 cm
same,"Second cutting, green weight",2.0 kg/ha,21.4 g
same,"Second cutting, growth height",2.0 kg/ha,22.0 cm
same,"Third cutting, green weight",2.0 kg/ha,15.7 g
same,"First cutting, green weight relative",2.0 kg/ha,56.7
same,"First cutting, growth height relative",2.0 kg/ha,69.5
same,"Second cutting, green weight relative",2.0 kg/ha,80.1
same,"Second cutting, growth height relative",2.0 kg/ha,74.8
same,"Third cutting, green weight relative",2.0 kg/ha,103.3
same,"First cutting, green weight",4.0 kg/ha,13.2 g
same,"First cutting, growth height",4.0 kg/ha,9.5 cm
same,"Second cutting, green weight",4.0 kg/ha,15.3 g
same,"Second cutting, growth height",4.0 kg/ha,7.5 cm
same,"Third cutting, green weight",4.0 kg/ha,13.9 g
same,"First cutting, green weight relative",4.0 kg/ha,37.4
same,"First cutting, growth height relative",4.0 kg/ha,52.8
same,"Second cutting, green weight relative",4.0 kg/ha,57.3
same,"Second cutting, growth height relative",4.0 kg/ha,51.0
same,"Third cutting, green weight relative",4.0 kg/ha,91.4
"CC(=O)Nc1ccc(C)c(NS(=O)(=O)C(F)(F)F)c1 [S, diethanolamine salt of 3-trifluoromethylsulfonamido-p-acetotoluidide, reference compound]","First cutting, green weight",0.5 kg/ha,26.7 g
same,"First cutting, growth height",0.5 kg/ha,14.5 cm
same,"Second cutting, green weight",0.5 kg/ha,27.3 g
same,"Second cutting, growth height",0.5 kg/ha,14.0 cm
same,"Third cutting, green weight",0.5 kg/ha,15.6 g
same,"First cutting, green weight relative",0.5 kg/ha,75.6
same,"First cutting, growth height relative",0.5 kg/ha,80.6
same,"Second cutting, green weight relative",0.5 kg/ha,102.2
same,"Second cutting, growth height relative",0.5 kg/ha,95.2
same,"Third cutting, green weight relative",0.5 kg/ha,102.6
same,"First cutting, green weight",1.0 kg/ha,23.0 g
same,"First cutting, growth height",1.0 kg/ha,13.0 cm
same,"Second cutting, green weight",1.0 kg/ha,27.6 g
same,"Second cutting, growth height",1.0 kg/ha,12.5 cm
same,"Third cutting, green weight",1.0 kg/ha,15.0 g
same,"First cutting, green weight relative",1.0 kg/ha,65.2
same,"First cutting, growth height relative",1.0 kg/ha,72.2
same,"Second cutting, green weight relative",1.0 kg/ha,103.4
same,"Second cutting, growth height relative",1.0 kg/ha,85.0
same,"Third cutting, green weight relative",1.0 kg/ha,98.6
same,"First cutting, green weight",2.0 kg/ha,12.6 g
same,"First cutting, growth height",2.0 kg/ha,10.5 cm
same,"Second cutting, green weight",2.0 kg/ha,20.1 g
same,"Second cutting, growth height",2.0 kg/ha,9.5 cm
same,"Third cutting, green weight",2.0 kg/ha,13.7 g
same,"First cutting, green weight relative",2.0 kg/ha,35.7
same,"First cutting, growth height relative",2.0 kg/ha,58.3
same,"Second cutting, green weight relative",2.0 kg/ha,75.3
same,"Second cutting, growth height relative",2.0 kg/ha,64.6
same,"Third cutting, green weight relative",2.0 kg/ha,90.1
same,"First cutting, green weight",4.0 kg/ha,9.4 g
same,"First cutting, growth height",4.0 kg/ha,9.0 cm
same,"Second cutting, green weight",4.0 kg/ha,9.6 g
same,"Second cutting, growth height",4.0 kg/ha,4.5 cm
same,"Third cutting, green weight",4.0 kg/ha,10.4 g
same,"First cutting, green weight relative",4.0 kg/ha,26.6
same,"First cutting, growth height relative",4.0 kg/ha,50.0
same,"Second cutting, green weight relative",4.0 kg/ha,36.0
same,"Second cutting, growth height relative",4.0 kg/ha,30.6
same,"Third cutting, green weight relative",4.0 kg/ha,68.4
Brc1ccc(N2N=NC3C4CC(C5N=NC45)C32)cc1 (centres unmarked) [drawing 380],"First cutting, green weight",0.5 kg/ha,25.5 g
same,"First cutting, growth height",0.5 kg/ha,14.5 cm
same,"Second cutting, green weight",0.5 kg/ha,27.8 g
same,"Second cutting, growth height",0.5 kg/ha,14.5 cm
same,"Third cutting, green weight",0.5 kg/ha,16.5 g
same,"First cutting, green weight relative",0.5 kg/ha,72.2
same,"First cutting, growth height relative",0.5 kg/ha,80.6
same,"Second cutting, green weight relative",0.5 kg/ha,104.1
same,"Second cutting, growth height relative",0.5 kg/ha,98.6
same,"Third cutting, green weight relative",0.5 kg/ha,108.6
same,"First cutting, green weight",1.0 kg/ha,24.4 g
same,"First cutting, growth height",1.0 kg/ha,12.5 cm
same,"Second cutting, green weight",1.0 kg/ha,25.1 g
same,"Second cutting, growth height",1.0 kg/ha,11.5 cm
same,"Third cutting, green weight",1.0 kg/ha,16.5 g
same,"First cutting, green weight relative",1.0 kg/ha,69.1
same,"First cutting, growth height relative",1.0 kg/ha,69.5
same,"Second cutting, green weight relative",1.0 kg/ha,94.0
same,"Second cutting, growth height relative",1.0 kg/ha,78.2
same,"Third cutting, green weight relative",1.0 kg/ha,108.6
same,"First cutting, green weight",2.0 kg/ha,22.0 g
same,"First cutting, growth height",2.0 kg/ha,11.0 cm
same,"Second cutting, green weight",2.0 kg/ha,18.7 g
same,"Second cutting, growth height",2.0 kg/ha,8.0 cm
same,"Third cutting, green weight",2.0 kg/ha,14.0 g
same,"First cutting, green weight relative",2.0 kg/ha,62.3
same,"First cutting, growth height relative",2.0 kg/ha,61.1
same,"Second cutting, green weight relative",2.0 kg/ha,70.0
same,"Second cutting, growth height relative",2.0 kg/ha,54.4
same,"Third cutting, green weight relative",2.0 kg/ha,92.1
same,"First cutting, green weight",4.0 kg/ha,16.5 g
same,"First cutting, growth height",4.0 kg/ha,10.5 cm
same,"Second cutting, green weight",4.0 kg/ha,13.2 g
same,"Second cutting, growth height",4.0 kg/ha,7.0 cm
same,"Third cutting, green weight",4.0 kg/ha,10.3 g
same,"First cutting, green weight relative",4.0 kg/ha,46.7
same,"First cutting, growth height relative",4.0 kg/ha,58.3
same,"Second cutting, green weight relative",4.0 kg/ha,49.4
same,"Second cutting, growth height relative",4.0 kg/ha,47.6
same,"Third cutting, green weight relative",4.0 kg/ha,67.8
Clc1ccc(N2N=NC3C4CC(C5NNC45)C32)cc1 (centres unmarked) [drawing 381],"First cutting, green weight",0.5 kg/ha,28.8 g
same,"First cutting, growth height",0.5 kg/ha,16.5 cm
same,"Second cutting, green weight",0.5 kg/ha,27.2 g
same,"Second cutting, growth height",0.5 kg/ha,12.5 cm
same,"Third cutting, green weight",0.5 kg/ha,17.2 g
same,"First cutting, green weight relative",0.5 kg/ha,81.6
same,"First cutting, growth height relative",0.5 kg/ha,91.7
same,"Second cutting, green weight relative",0.5 kg/ha,101.9
same,"Second cutting, growth height relative",0.5 kg/ha,85.0
same,"Third cutting, green weight relative",0.5 kg/ha,113.2
same,"First cutting, green weight",1.0 kg/ha,21.3 g
same,"First cutting, growth height",1.0 kg/ha,13.5 cm
same,"Second cutting, green weight",1.0 kg/ha,20.5 g
same,"Second cutting, growth height",1.0 kg/ha,9.0 cm
same,"Third cutting, green weight",1.0 kg/ha,15.1 g
same,"First cutting, green weight relative",1.0 kg/ha,60.3
same,"First cutting, growth height relative",1.0 kg/ha,75.0
same,"Second cutting, green weight relative",1.0 kg/ha,76.8
same,"Second cutting, growth height relative",1.0 kg/ha,61.2
same,"Third cutting, green weight relative",1.0 kg/ha,99.3
same,"First cutting, green weight",2.0 kg/ha,17.2 g
same,"First cutting, growth height",2.0 kg/ha,11.5 cm
same,"Second cutting, green weight",2.0 kg/ha,16.2 g
same,"Second cutting, growth height",2.0 kg/ha,7.5 cm
same,"Third cutting, green weight",2.0 kg/ha,12.5 g
same,"First cutting, green weight relative",2.0 kg/ha,48.7
same,"First cutting, growth height relative",2.0 kg/ha,63.9
same,"Second cutting, green weight relative",2.0 kg/ha,60.7
same,"Second cutting, growth height relative",2.0 kg/ha,51.0
same,"Third cutting, green weight relative",2.0 kg/ha,82.2
same,"First cutting, green weight",4.0 kg/ha,13.9 g
same,"First cutting, growth height",4.0 kg/ha,9.0 cm
same,"Second cutting, green weight",4.0 kg/ha,10.2 g
same,"Second cutting, growth height",4.0 kg/ha,5.0 cm
same,"Third cutting, green weight",4.0 kg/ha,9.8 g
same,"First cutting, green weight relative",4.0 kg/ha,39.4
same,"First cutting, growth height relative",4.0 kg/ha,50.0
same,"Second cutting, green weight relative",4.0 kg/ha,38.2
same,"Second cutting, growth height relative",4.0 kg/ha,34.0
same,"Third cutting, green weight relative",4.0 kg/ha,64.5
